Test results taken from ChEMBL document CHEMBL1126366, “Design & synthesis of a novel EPSP synthase inhibitor based on its ternary complex with shikimate-3-phosphate and glyphosate” (Bioorg Med Chem Lett, 1992).
One block for each compound: values may come before it.

Columns and labels:
[1] = biological target: T1, 3-phosphoshikimate 1-carboxyvinyltransferase (Escherichia coli K-12, UniProt P0A6D3); test: Potency against EPSP synthase
T1 sequence (P0A6D3 whole entry): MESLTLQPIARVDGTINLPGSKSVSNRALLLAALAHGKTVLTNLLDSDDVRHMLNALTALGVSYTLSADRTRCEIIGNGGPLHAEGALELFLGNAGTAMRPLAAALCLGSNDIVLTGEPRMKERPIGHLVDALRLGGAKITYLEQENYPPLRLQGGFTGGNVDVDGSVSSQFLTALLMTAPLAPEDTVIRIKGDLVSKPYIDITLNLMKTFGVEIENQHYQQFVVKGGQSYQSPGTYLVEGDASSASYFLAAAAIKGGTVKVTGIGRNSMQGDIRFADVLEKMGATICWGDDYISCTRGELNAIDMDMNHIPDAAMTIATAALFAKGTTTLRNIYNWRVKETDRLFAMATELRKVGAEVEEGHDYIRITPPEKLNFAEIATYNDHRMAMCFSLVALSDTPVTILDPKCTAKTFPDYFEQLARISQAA

[2] = biological target: T1, 3-phosphoshikimate 1-carboxyvinyltransferase; test: Inhibition of EPSP synthase PEP-Pi site by the compound was expressed as apparent value
[3] = biological target: T1, 3-phosphoshikimate 1-carboxyvinyltransferase; test: Dissociation constant against EPSP synthase
[4] = biological target: T1, 3-phosphoshikimate 1-carboxyvinyltransferase; test: Inhibition of the EPSP synthase by the compound expressed as weak apparent value
[5] = biological target: T1, 3-phosphoshikimate 1-carboxyvinyltransferase; test: Inhibition of the EPSP synthase PEP-Pi site by the compound expressed as apparent value
[6] = biological target: T1, 3-phosphoshikimate 1-carboxyvinyltransferase; test: Dissociation constant of the at EPSP synthase was determined

Structure (SMILES): C[C@@](O[C@@H]1CC(C(=O)O)=C[C@@H](OP(=O)(O)O)[C@H]1O)(C(=O)O)P(=O)(O)O
Ki [1]: 0.015 µM
Ki [2]: 0.00011 µM
Kd [3]: 0.015 µM

Ki [1]: 85 µM
Structure (SMILES): N[C@@H]1CC(C(=O)O)=C[C@@H](OP(=O)(O)O)[C@H]1O

Structure (SMILES): O=C(O)CN(CP(=O)(O)O)[C@@H]1CC(C(=O)O)=C[C@@H](OP(=O)(O)O)[C@H]1O
Ki [4]: 7.4 µM
Ki [5]: 13 µM
Kd [6]: 8 µM
